Data published in ChEMBL document CHEMBL6092167, “Phosphorylation as an Effective Tool to Improve Stability and Reduce Toxicity of Antimicrobial Peptides” (J Med Chem, 2024).
Values after ≈ are worked out from the molar mass of the structure shown. Active and inactive are the calls of the source. No cut-off for these calls is given here. Non-standard residues stand in square brackets, D forms with d. Residues, ends and D or L forms follow the SMILES beside them. Bip = N[C@@H](Cc1ccc(-c2ccccc2)cc1)C(=O)O; pY = N[C@@H](Cc1ccc(OP(=O)(O)O)cc1)C(=O)O

How the values were obtained:
[1] = test system: Staphylococcus aureus; assay: Antibacterial activity against methicillin resistant Staphylococcus aureus ATCC 33591 incubated for 18 to 24 hrs by broth microdilution method; type: functional; settings: time 18-24 hrs
[2] = test system: Staphylococcus aureus; assay: Antibacterial activity against methicillin resistant Staphylococcus aureus 48 incubated for 18 to 24 hrs by broth microdilution method; type: functional; settings: time 18-24 hrs
[3] = test system: Staphylococcus aureus; assay: Antibacterial activity against Staphylococcus aureus 794 incubated for 18 to 24 hrs by broth microdilution method; type: functional; settings: time 18-24 hrs
[4] = test system: Escherichia coli; assay: Antibacterial activity against Escherichia coli 850 incubated for 18 to 24 hrs by broth microdilution method; type: functional; settings: time 18-24 hrs
[5] = test system: Bacillus subtilis; assay: Antibacterial activity against Bacillus subtilis ATCC 23857 incubated for 18 to 24 hrs by broth microdilution method; type: functional; settings: time 18-24 hrs
[6] = test system: Escherichia coli; assay: Antibacterial activity against Escherichia coli ATCC 25922 incubated for 18 to 24 hrs by broth microdilution method; type: functional; settings: time 18-24 hrs
[7] = test system: Pseudomonas aeruginosa; assay: Antibacterial activity against Pseudomonas aeruginosa ATCC 27853 incubated for 18 to 24 hrs by broth microdilution method; type: functional; settings: time 18-24 hrs
[8] = test system: Klebsiella pneumoniae; assay: Antibacterial activity against Klebsiella pneumoniae ATCC 700603 incubated for 18 to 24 hrs by broth microdilution method; type: functional; settings: time 18-24 hrs
[9] = test system: Acinetobacter baumannii; assay: Antibacterial activity against Acinetobacter baumannii ATCC 19606 incubated for 18 to 24 hrs by broth microdilution method; type: functional; settings: time 18-24 hrs
[10] = Hemolytic activity in mouse erythrocyte incubated for 1 hr by microplate reader assay; type: toxicity, cell-based
[11] = Cytotoxicity against HEK293T cells incubated for 1 hr by fluorescence based microplate reader assay; type: toxicity, cell-based, HEK-293T; settings: human
[12] = biological target: Trypsin (Homo sapiens, UniProt P07477+P07478+P35030); assay: Stability of compound assessed as trypsin (unknown origin) mediated compound degradation; type: ADME, protein assay
[13] = biological target: Chymotrypsin (Homo sapiens, UniProt Q99895+P17538+P40313+Q6GPI1); assay: Stability of compound assessed as chymotrypsin (unknown origin) mediated compound degradation; type: ADME, protein assay
[14] = test system: Cell membrane; assay: Induction of membrane damage in Pseudomonas aeruginosa ATCC 27853 assessed as change in membrane shape at 2 times MIC incubated for 30 to 120 mins by SEM analysis; type: subcellular; settings: time 30-120 min
[15] = test system: Cell membrane; assay: Induction of cytoplasmic membrane rupture in Pseudomonas aeruginosa ATCC 27853 assessed as wrinkling at 2 times MIC incubated for 30 to 120 mins by SEM analysis; type: subcellular; settings: time 30-120 min
[16] = test system: Cell membrane; assay: Induction of cytoplasmic membrane rupture in Pseudomonas aeruginosa ATCC 27853 assessed as adhesion at 2 times MIC incubated for 30 to 120 mins by SEM analysis; type: subcellular; settings: time 30-120 min
[17] = test system: Cell membrane; assay: Induction of cytoplasmic membrane rupture in Pseudomonas aeruginosa ATCC 27853 assessed as leakage of cellular content at 2 times MIC incubated for 30 to 120 mins by SEM analysis; type: subcellular; settings: time 30-120 min
[18] = test system: Cell membrane; assay: Induction of cytoplasmic membrane rupture in Pseudomonas aeruginosa ATCC 27853 assessed as blistering at 2 times MIC incubated for 30 to 120 mins by SEM analysis; type: subcellular; settings: time 30-120 min
[19] = test system: Cell membrane; assay: Induction of cytoplasmic membrane rupture in Staphylococcus aureus ATCC 25923 assessed as adhesion at 2 times MIC incubated for 30 to 120 mins by SEM analysis; type: subcellular; settings: time 30-120 min
[20] = test system: Cell membrane; assay: Induction of cytoplasmic membrane rupture in Staphylococcus aureus ATCC 25923 assessed as content leakage at 2 times MIC incubated for 30 to 120 mins by SEM analysis; type: subcellular; settings: time 30-120 min
[21] = test system: Cell membrane; assay: Induction of cell membrane disruption in Staphylococcus aureus ATCC 25923 at 2 times MIC incubated for 2 hrs by SEM analysis; type: subcellular
[22] = test system: Cell membrane; assay: Induction of cell membrane disruption in Pseudomonas aeruginosa ATCC 27853 at 2 times MIC incubated for 2 hrs by SEM analysis; type: subcellular
[23] = test system: Cell membrane; assay: Induction of outer membrane permeabilization in Escherichia coli ATCC 25922 assessed as increase in fluorescence intensity incubated for 1 min by NPN dye based microplate reader assay; type: subcellular
[24] = test system: Cell membrane; assay: Induction of inner membrane permeabilization in Escherichia coli ML-35 assessed as increase in […] intensity measured every 5 mins for 135 mins by ONPG dye based microplate reader assay; type: subcellular
[25] = test system: Cell membrane; assay: Induction of inner membrane permeabilization in Escherichia coli ML-35 assessed as increase in […] intensity by ONPG dye based microplate reader assay; type: subcellular
[26] = test system: Escherichia coli; assay: Inhibition of biofilm formation in Escherichia coli ATCC 25922 incubated for 24 hrs by crystal violet staining based assay; type: functional, organism-based
[27] = test system: Klebsiella pneumoniae; assay: Inhibition of biofilm formation in Klebsiella pneumoniae ATCC 700603 incubated for 24 hrs by crystal violet staining based assay; type: functional, organism-based
[28] = test system: Pseudomonas aeruginosa; assay: Inhibition of biofilm formation in Pseudomonas aeruginosa ATCC 27853 incubated for 24 hrs by crystal violet staining based assay; type: functional, organism-based
[29] = test system: Escherichia coli; assay: Antibiofilm activity against Escherichia coli ATCC 25922 assessed as eradication of preformed biofilms at 2 to 4 times MIC incubated for 24 hrs by crystal violet staining based assay; type: functional, organism-based
[30] = test system: Klebsiella pneumoniae; assay: Antibiofilm activity against Klebsiella pneumoniae ATCC 700603 assessed as eradication of preformed biofilms at 2 to 4 times MIC incubated for 24 hrs by crystal violet staining based assay; type: functional, organism-based
[31] = test system: Staphylococcus aureus; assay: Antibiofilm activity against Staphylococcus aureus ATCC 25923 assessed as eradication of preformed biofilms at 2 to 4 times MIC incubated for 24 hrs by crystal violet staining based assay; type: functional, organism-based
[32] = test system: Pseudomonas aeruginosa; assay: Antibiofilm activity against Pseudomonas aeruginosa ATCC 27853 assessed as eradication of preformed biofilms at 4 times MIC incubated for 24 hrs by crystal violet staining based assay; type: functional, organism-based
[33] = test system: Klebsiella pneumoniae; assay: Antibiofilm activity against Klebsiella pneumoniae ATCC 700603 assessed as eradication of preformed biofilms incubated for 24 hrs by crystal violet staining based assay; type: functional, organism-based
[34] = test system: Staphylococcus aureus; assay: Antibiofilm activity against Staphylococcus aureus ATCC 25923 assessed as eradication of preformed biofilms incubated for 24 hrs by crystal violet staining based assay; type: functional, organism-based
[35] = test system: Pseudomonas aeruginosa; assay: Antibiofilm activity against Pseudomonas aeruginosa ATCC 27853 assessed as eradication of preformed biofilms incubated for 24 hrs by crystal violet staining based assay; type: functional, organism-based
[36] = test system: Klebsiella pneumoniae; assay: Synergistic antibacterial activity against Klebsiella pneumoniae ATCC 700603 assessed as fractional inhibitory concentration index at 1/4 to 4 times MIC incubated for 18 to 24 hrs in presence of polymyxin B by checkerboard assay; type: functional; settings: time 18-24 hrs
[37] = test system: Klebsiella pneumoniae; assay: Additive antibacterial activity against Klebsiella pneumoniae ATCC 700603 assessed as fractional inhibitory concentration index at 1/4 to 4 times MIC incubated for 18 to 24 hrs in presence of rifampicin by checkerboard assay; type: functional; settings: time 18-24 hrs
[38] = test system: Klebsiella pneumoniae; assay: Additive antibacterial activity against Klebsiella pneumoniae ATCC 700603 assessed as fractional inhibitory concentration index at 1/4 to 4 times MIC incubated for 18 to 24 hrs in presence of kanamycin by checkerboard assay; type: functional; settings: time 18-24 hrs
[39] = test system: Klebsiella pneumoniae; assay: Inhibition of rifampicin resistance in Klebsiella pneumoniae ATCC 700603 at 1:1 compound: rifampicin molar ratio measured after 20 generation; type: functional, organism-based
[40] = test system: Klebsiella pneumoniae; assay: Inhibition of kanamycin resistance in Klebsiella pneumoniae ATCC 700603 at 1:1 compound: kanamycin molar ratio measured after 20 generation; type: functional, organism-based
[41] = test system: Klebsiella pneumoniae; assay: Antibacterial activity against kanamycin resistant Klebsiella pneumoniae; type: functional
[42] = Toxicity in ip dosed BALB/c mouse measured after 14 days; type: organism-based; settings: in vivo, time 14 day

SMILES: CC(C)C[C@H](NC(=O)[C@H](CC(C)C)NC(=O)[C@H](Cc1ccc(O)cc1)NC(=O)[C@H](CCCCN)NC(=O)[C@H](CC(C)C)NC(=O)[C@H](CCCNC(=N)N)NC(=O)[C@H](CCCCN)NC(=O)[C@H](Cc1ccc(-c2ccccc2)cc1)NC(=O)[C@H](CC(C)C)NC(=O)CN)C(N)=O (H-GL[Bip]KRLKYLL-NH2)
- MIC [1]: 8 µM (≈ 10.6 µg/mL)
- MIC [2]: 8 µM (≈ 10.6 µg/mL)
- MIC [3]: 8 µM (≈ 10.6 µg/mL)
- MIC [4]: 8 µM (≈ 10.6 µg/mL)
- MIC [5]: 4 µM (≈ 5.3 µg/mL)
- MIC [6]: 8 µM (≈ 10.6 µg/mL)
- MIC [7]: 8 µM (≈ 10.6 µg/mL)
- MIC [8]: 8 µM (≈ 10.6 µg/mL)
- MIC [9]: 8 µM (≈ 10.6 µg/mL)
- MHC [10]: 27.38 µM
- CC50 at 1 h [11]: 50.9 µM
- Stability [12]: Stable
- Stability [13]: Stable
- Activity [14]: Active
- Activity [15]: Active
- Activity [16]: Active
- Activity [17]: Active
- Activity [18]: Active
- Activity [19]: Active
- Activity [20]: Active
- Activity [21]: Active; More Potent Than Polymyxin B And Vancomycin
- Activity [22]: Active; More Potent Than Polymyxin B And Vancomycin
- Activity [23]: Dose-dependent-effect
- Activity [24]: Dose-dependent-effect; More Potent Than 1% Triton X-100 And Polymyxin B
- Activity [25]: Time-dependent-effect; More Potent Than 1% Triton X-100 And Polymyxin B
- inhibition [26]: Dose-dependent-effect; Inhibition Comparable To Polymyxin B
- inhibition [27]: Dose-dependent-effect; Inhibition Comparable To Polymyxin B
- inhibition [28]: Dose-dependent-effect; Inhibition Comparable To Polymyxin B
- Activity [29]: Active
- Activity [30]: Active
- Activity [31]: Active
- Activity [32]: Active
- Activity [33]: Dose-dependent-effect; Superior Activity Compared To Polymyxin B And Vancomycin
- Activity [34]: Dose-dependent-effect; Superior Activity Compared To Polymyxin B And Vancomycin
- Activity [35]: Dose-dependent-effect; Superior Activity Compared To Polymyxin B And Vancomycin
- fractional inhibitory concentration index (FICI) [36]: 0.5
- fractional inhibitory concentration index (FICI) [37]: 0.563
- fractional inhibitory concentration index (FICI) [38]: 0.563
- inhibition [39]: Active
- inhibition [40]: Active
- MIC [41]: 8 µM (≈ 10.6 µg/mL)
- LD50 at 336 h [42]: 66.7 mg/kg

SMILES: CC(C)C[C@H](NC(=O)[C@H](CC(C)C)NC(=O)[C@H](Cc1ccc(OP(=O)(O)O)cc1)NC(=O)[C@H](CCCCN)NC(=O)[C@H](CC(C)C)NC(=O)[C@H](CCCNC(=N)N)NC(=O)[C@H](CCCCN)NC(=O)[C@H](Cc1ccc(-c2ccccc2)cc1)NC(=O)[C@H](CC(C)C)NC(=O)CN)C(N)=O (H-GL[Bip]KRLK[pY]LL-NH2)
- MIC [1]: 8 µM (≈ 11.2 µg/mL)
- MIC [2]: 8 µM (≈ 11.2 µg/mL)
- MIC [3]: 8 µM (≈ 11.2 µg/mL)
- MIC [4]: 8 µM (≈ 11.2 µg/mL)
- MIC [5]: 8 µM (≈ 11.2 µg/mL)
- MIC [6]: 8 µM (≈ 11.2 µg/mL)
- MIC [7]: 16 µM (≈ 22.5 µg/mL)
- MIC [8]: 8 µM (≈ 11.2 µg/mL)
- MIC [9]: 4 µM (≈ 5.62 µg/mL)
- MHC [10]: > 256 µM
- CC50 at 1 h [11]: 168 µM
- Stability [12]: Stable
- Stability [13]: Stable
- Activity [14]: Active
- Activity [15]: Active
- Activity [16]: Active
- Activity [17]: Active
- Activity [18]: Active
- Activity [19]: Active
- Activity [20]: Active
- Activity [21]: Active; More Potent Than Polymyxin B And Vancomycin
- Activity [22]: Active; More Potent Than Polymyxin B And Vancomycin
- Activity [23]: Dose-dependent-effect
- Activity [24]: Dose-dependent-effect; More Potent Than 1% Triton X-100 And Polymyxin B
- Activity [25]: Time-dependent-effect; More Potent Than 1% Triton X-100 And Polymyxin B
- inhibition [26]: Dose-dependent-effect; Inhibition Comparable To Polymyxin B
- inhibition [27]: Dose-dependent-effect; Inhibition Comparable To Polymyxin B
- inhibition [28]: Dose-dependent-effect; Inhibition Comparable To Polymyxin B
- Activity [29]: Active
- Activity [30]: Active
- Activity [31]: Active
- Activity [32]: Active
- Activity [33]: Dose-dependent-effect; Superior Activity Compared To Polymyxin B And Vancomycin
- Activity [34]: Dose-dependent-effect; Superior Activity Compared To Polymyxin B And Vancomycin
- Activity [35]: Dose-dependent-effect; Superior Activity Compared To Polymyxin B And Vancomycin
- fractional inhibitory concentration index (FICI) [36]: 0.5
- fractional inhibitory concentration index (FICI) [37]: 0.563
- fractional inhibitory concentration index (FICI) [38]: 0.563
- inhibition [39]: Active
- inhibition [40]: Active
- MIC [41]: 8 µM (≈ 11.2 µg/mL)
- LD50 at 336 h [42]: 283 mg/kg
